Experimental data as given in BindingDB's records for doi:10.1007/s10822-022-00478-x (Roche Innovation Center Basel, F. Hoffmann-La Roche Ltd., 2022).

Target: cAMP and cAMP-inhibited cGMP 3',5'-cyclic phosphodiesterase 10A (Homo sapiens, UniProt Q9Y233)
Assay: PDE10A assay
In short: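 Scintillation proximity readout of [3H]cGMP hydrolysis (50 nM final substrate, 15 min) by 2 ng/well human PDE10A after 15 min compound preincubation at RT, pH 7.5 with MgCl2. Four-parameter logistic fit gave IC50, reported as pIC50.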

`O=C(Nc1ccn(S(=O)(=O)C(F)(F)F)n1)c1nc(C2CC2)ccc1Nc1cncnc1` [Roche-Dataset for PDE10A, Compound 635] gave an IC50 of 0.018 µM.
`Cn1nc(-c2ccccn2)cc1NC(=O)c1cc(Br)c[nH]c1=O` [Roche-Dataset for PDE10A, Compound 636] showed an IC50 of 0.295 µM.
`COCCn1ccc(NC(=O)c2nc(C3CC3)ccc2Nc2cncnc2)n1` [Roche-Dataset for PDE10A, Compound 640] showed an IC50 of 0.014 µM.
`O=C(N[C@@H](CO)Cc1ccccc1)c1nc(C2CC2)cnc1Nc1cncnc1` [Roche-Dataset for PDE10A, Compound 641] was tested, and the IC50 was 1.43 µM.
`O=C(Nc1ccnn1CC(F)F)c1nc(C2CC2)ccc1Nc1cncnc1` [Roche-Dataset for PDE10A, Compound 642] showed an IC50 of 0.046 µM.
For `CCCn1ccc(NC(=O)c2nc(C3CC3)ccc2Nc2cncnc2)n1` [Roche-Dataset for PDE10A, Compound 643], the IC50 was 0.014 µM.
In the case of `Cn1cc(-c2ccccc2)nc1COc1nc2ccccc2nc1C(F)(F)F` [Roche-Dataset for PDE10A, Compound 644], the IC50 is reported as 0.026 µM.
For `Cc1ncc(C)n2nc(/C=C/c3nc(Br)cn3-c3ccccc3)nc12` [Roche-Dataset for PDE10A, Compound 648], the IC50 was 0.202 µM.
Work on `CN(c1nc2cc(NC(=O)c3c(C(=O)O)cnn3C)ccn2n1)C1CC1` [Roche-Dataset for PDE10A, Compound 649] yielded an IC50 of 0.042 µM.
For `CNC(=O)c1cc2[nH]c(-c3ccccc3)nc2cc1NC(=O)c1cc(C(C)(C)C)nn1C` [Roche-Dataset for PDE10A, Compound 650], the IC50 was 0.114 µM.
Work on `CN(C)c1nc2ccc(NC(=O)c3c(C(=O)N4CCC4)cnn3C)cn2n1` [Roche-Dataset for PDE10A, Compound 652] yielded an IC50 of 0.00876 µM.
For `O=C(Nc1cc(C2CCCC2)n[nH]1)c1nc(C2CC2)ccc1Nc1cncnc1` [Roche-Dataset for PDE10A, Compound 653], the IC50 was 0.375 µM.
`CCn1nccc1NC(=O)c1ccc2cc(-c3ccccc3)nn2c1` [Roche-Dataset for PDE10A, Compound 654] gave an IC50 of 0.575 µM.
`Cn1nc(-c2ccccn2)cc1NC(=O)c1cccc2c1OCCO2` [Roche-Dataset for PDE10A, Compound 655] gave an IC50 of 10 µM.
In the case of `CNC(=O)c1cnn(C)c1C(=O)Nc1ccn2cc(-c3cccc(F)c3)nc2n1` [Roche-Dataset for PDE10A, Compound 656], the IC50 is reported as 0.062 µM.
`Cc1ncc(Br)c2nc(CCc3nc(N4CCCC4)nn3C)nn12` [Roche-Dataset for PDE10A, Compound 658] showed an IC50 of 0.034 µM.
In the case of `COC(=O)c1cccnc1C(=O)Nc1ccn2nc(-c3ccccc3)nc2c1` [Roche-Dataset for PDE10A, Compound 659], the IC50 is reported as 2.72 µM.
Compound `O=C(NC[C@@H]1[C@@H](c2ccccc2)C1(F)F)c1nc(C2CC2)cnc1Nc1cncnc1` [Roche-Dataset for PDE10A, Compound 661] has an IC50 of 0.954 µM.
For `Cn1nc(-c2ccccn2)cc1NC(=O)c1ccn(CC(F)(F)F)n1` [Roche-Dataset for PDE10A, Compound 662], the IC50 was 10 µM.
`Cc1c(Cl)cc(Cl)c2nc(CCc3cn4ccccc4n3)nn12` [Roche-Dataset for PDE10A, Compound 663] showed an IC50 of 0.00941 µM.
For `Cn1ncc(C(=O)N2CCC2)c1C(=O)Nc1cc(-c2ccccn2)n[nH]1` [Roche-Dataset for PDE10A, Compound 664], the IC50 was 0.0083 µM.
For `O=C(NCCCS(=O)(=O)c1ccccc1)c1nc(C2CC2)cnc1Nc1cncnc1` [Roche-Dataset for PDE10A, Compound 665], the IC50 was 0.822 µM.
For `CCOc1ccccc1C(=O)Nc1cc(-c2ccccn2)nn1C` [Roche-Dataset for PDE10A, Compound 666], the IC50 was 2.38 µM.
In the case of `O=C(Nc1ccccc1C(=O)C1CCCCC1)c1nc(C2CC2)cnc1Nc1cncnc1` [Roche-Dataset for PDE10A, Compound 667], the IC50 is reported as 0.013 µM.
For `O=C(NCc1ccc(C(F)(F)F)cc1)c1nc(C2CC2)cnc1Nc1cncnc1` [Roche-Dataset for PDE10A, Compound 668], the IC50 was 0.1 µM.
Compound `Cn1ncc(C(=O)N2CCC2)c1C(=O)Nc1ccn(Cc2cn(-c3ccc(Cl)c(Cl)c3)cn2)n1` [Roche-Dataset for PDE10A, Compound 669] has an IC50 of 0.08 µM.
`COc1cnc(C)n2nc(CCc3nc(N4CCCC4)nn3C)nc12` [Roche-Dataset for PDE10A, Compound 671] was tested, and the IC50 was 0.011 µM.
`Cc1ncc(C(C)C)c2nc(CCc3nc(N4CCCC4)nn3C)nn12` [Roche-Dataset for PDE10A, Compound 672] was tested, and the IC50 was 0.00701 µM.
`CNC(=O)c1cn(C)c(CCc2nc3c(C)ncc(C)n3n2)n1` [Roche-Dataset for PDE10A, Compound 675] showed an IC50 of 0.228 µM.
Compound `Cn1nc(C2CCCC2)cc1NC(=O)c1nc(C2CC2)ccc1Nc1cncnc1` [Roche-Dataset for PDE10A, Compound 677] has an IC50 of 0.439 µM.
For `Cc1cn2nc(CCc3nc(N4CCCC4)nn3C)nc2cn1` [Roche-Dataset for PDE10A, Compound 678], the IC50 was 0.929 µM.
Compound `O=C(Nc1ccc2cc(-c3ccccc3)nn2c1)c1ccno1` [Roche-Dataset for PDE10A, Compound 679] has an IC50 of 2.36 µM.
`O=C(NCc1cn(-c2ccccc2)cn1)c1nc(C2CC2)cnc1Nc1cncnc1` [Roche-Dataset for PDE10A, Compound 682] showed an IC50 of 0.053 µM.
Compound `Cc1ccc(C(=O)Nc2ccn3nc(-c4ccccc4)nc3c2)cn1` [Roche-Dataset for PDE10A, Compound 684] has an IC50 of 4.67 µM.
`O=C(Nc1ccc(N2CCOCC2=O)cc1)c1nc(C2CC2)ccc1Nc1cncnc1` [Roche-Dataset for PDE10A, Compound 686] showed an IC50 of 0.043 µM.
With `Cc1nc2nc(CCc3nc(-c4ccccc4)cn3C)[nH]c(=O)c2n1C` [Roche-Dataset for PDE10A, Compound 687] the IC50 was 0.331 µM.
In the case of `Cc1ncc(C)n2nc(/C=C/c3nc(N4CCC[C@H]4CF)nn3C)nc12` [Roche-Dataset for PDE10A, Compound 691], the IC50 is reported as 0.787 µM.
`CC(C)n1ccc(NC(=O)c2nc(C3CC3)ccc2Nc2cncnc2)n1` [Roche-Dataset for PDE10A, Compound 692] gave an IC50 of 0.048 µM.
In the case of `CN(C)C(=O)Cc1cccc(NC(=O)c2nc(C3CC3)cnc2Nc2cncnc2)c1` [Roche-Dataset for PDE10A, Compound 693], the IC50 is reported as 0.097 µM.
Compound `O=C(Nc1cccc(OCC(F)(F)F)c1)c1nc(C2CC2)cnc1Nc1cncnc1` [Roche-Dataset for PDE10A, Compound 694] has an IC50 of 0.016 µM.
Work on `O=C(Nc1ccn(C2CCC2)n1)c1nc(C2CC2)ccc1Nc1cncnc1` [Roche-Dataset for PDE10A, Compound 695] yielded an IC50 of 0.021 µM.
With `O=C(Nc1ccn(CCF)n1)c1nc(C2CC2)ccc1Nc1cncnc1` [Roche-Dataset for PDE10A, Compound 698] the IC50 was 0.00984 µM.
Work on `O=C(NCc1ccc2nccnc2c1)c1nc(C2CC2)cnc1Nc1cncnc1` [Roche-Dataset for PDE10A, Compound 699] yielded an IC50 of 0.141 µM.
In the case of `COc1c(C)cnc(CCc2ccc3ccccc3n2)c1C` [Roche-Dataset for PDE10A, Compound 701], the IC50 is reported as 1.48 µM.
`O=C(Nc1cccc(N2CCC(O)CC2)c1)c1nc(C2CC2)cnc1Nc1cncnc1` [Roche-Dataset for PDE10A, Compound 703] was tested, and the IC50 was 0.013 µM.
Compound `CNc1nc2cc(NC(=O)c3c(C(=O)N4CCC4)cnn3C)ccn2n1` [Roche-Dataset for PDE10A, Compound 704] has an IC50 of 0.0077 µM.
In the case of `Cc1ncc(O)c2nc(CCc3nc(N4CCCC4)nn3C)nn12` [Roche-Dataset for PDE10A, Compound 705], the IC50 is reported as 0.14 µM.
Compound `Cn1nc(-c2ccccn2)cc1NC(=O)c1cccn(C)c1=O` [Roche-Dataset for PDE10A, Compound 710] has an IC50 of 4.41 µM.
Work on `Cn1nc(-c2ccccn2)cc1NC(=O)c1c(Nc2cncnc2)cc[nH]c1=O` [Roche-Dataset for PDE10A, Compound 711] yielded an IC50 of 0.018 µM.
`CNC(=O)c1cc2[nH]c(-c3ccccc3)nc2cc1NC(=O)c1cc(C)n(C(C)(C)C)n1` [Roche-Dataset for PDE10A, Compound 713] gave an IC50 of 0.076 µM.
`Cc1nccc2nc(CCc3nc(N4CCCC4)nn3C)nn12` [Roche-Dataset for PDE10A, Compound 714] was tested, and the IC50 was 0.084 µM.
`O=C(Nc1ccn(C2CC2)n1)c1nc(C2CC2)ccc1Nc1cncnc1` [Roche-Dataset for PDE10A, Compound 715] gave an IC50 of 0.026 µM.
Compound `Cn1cc(-c2ccccc2)nc1COc1cnc(Br)c(C(=O)Nc2cncnc2)n1` [Roche-Dataset for PDE10A, Compound 716] has an IC50 of 2.94 µM.
Work on `CCN(C)c1nc2cc(NC(=O)c3c(C(=O)O)cnn3C)ccn2n1` [Roche-Dataset for PDE10A, Compound 717] yielded an IC50 of 0.284 µM.
In the case of `O=C(NCc1ccc2c(c1)CCO2)c1nc(C2CC2)cnc1Nc1cncnc1` [Roche-Dataset for PDE10A, Compound 718], the IC50 is reported as 0.148 µM.
Compound `Cn1ncc(C(=O)N2CCOCC2)c1C(=O)Nc1cn(-c2cccc(C(F)(F)F)n2)cn1` [Roche-Dataset for PDE10A, Compound 719] has an IC50 of 8.86 µM.
For `Cc1ncc(C)n2nc(/C=C/c3nc(C)n(-c4ccccc4)n3)nc12` [Roche-Dataset for PDE10A, Compound 720], the IC50 was 0.177 µM.
`CC(C)Oc1cccc(NC(=O)c2nc(C3CC3)cnc2Nc2cncnc2)c1` [Roche-Dataset for PDE10A, Compound 721] showed an IC50 of 0.00947 µM.
`CSc1ncc(Br)c(C(=O)Nc2cc(-c3ccccn3)nn2C)n1` [Roche-Dataset for PDE10A, Compound 723] gave an IC50 of 7.59 µM.
`O=C(Nc1cccc(N2CCCCC2=O)c1)c1nc(C2CC2)cnc1Nc1cncnc1` [Roche-Dataset for PDE10A, Compound 724] was tested, and the IC50 was 0.046 µM.
Work on `Cc1cnc(C)n2nc(CCc3nc(NCCCCl)nn3C)nc12` [Roche-Dataset for PDE10A, Compound 725] yielded an IC50 of 0.433 µM.
`Cc1ccc(C)c(C(=O)Nc2cc(-c3ccccn3)nn2C)n1` [Roche-Dataset for PDE10A, Compound 726] showed an IC50 of 3.34 µM.
`O=C(NCc1cnn(-c2ccccc2)n1)c1nc(C2CC2)cnc1Nc1cncnc1` [Roche-Dataset for PDE10A, Compound 727] gave an IC50 of 0.059 µM.
In the case of `O=C(NCCN1CCOCC1=O)c1nc(C2CC2)cnc1Nc1cncnc1` [Roche-Dataset for PDE10A, Compound 728], the IC50 is reported as 2.56 µM.
In the case of `O=C(Nc1ccnc(C(=O)N2CCCCC2)c1)c1nc(C2CC2)cnc1Nc1cncnc1` [Roche-Dataset for PDE10A, Compound 730], the IC50 is reported as 0.067 µM.
